In US11279744B2, “Neuropeptide Y fragment capable of releasing hematopoietic stem cells into blood and treating osteoporosis” (Kyungpook National University Industry-Academic Cooperation …, priority 2017, dated 2022):
“Also recorded” adds a separate entry of the source. Non-standard residues stand in square brackets, D forms with d. No end group written: not given here.

Legend:
Type in all cases: in vivo, mouse
[1] = system: animal models of osteoporosis; test: Micro CT bone density in animal models of osteoporosis; settings: OVX mice, 50 μg/kg i.p. twice a day for 4 weeks; femur microCT; compared to PBS
Experimental: To make an osteoporosis model, 10-18 12 weeks old female mice per group underwent ovarian ablation. A week later, 50 μg/kg of NPY(21-28), NPY D^25(21-28), NPY D^26(21-28), NPY D^25,26(21-28), Osteopep2, NPY and 100 μl of PBS(Gibco) were intraperitoneally administered twice a day for 4 weeks at 12 hour intervals. Alendronate (Sigma), used as a competitive drug, was intraperitoneally administered once a week for 4 weeks at a dose of 50 μg/kg. As a control group, only Sham model of osteoporosis was performed by subcutaneous dissection of female mouse. Mice were placed in experimental groups using the Block randomization method, and all mouse experiments were approved through the Kyungpook National University Institutional Animal Care and Use Committee. The femurs were separated from the mouse and refrigerated in 80% ethanol, and in order to measure change of bone density, the bone volume/total volume and trabecular thickness were measured by analyzing the area between 0.7 mm and 2.3 mm from the growth plate baseline with the Quantum FX microCT Imaging System. Femurs were separated from mice after the last administration of NPY (21-28) at 4 weeks. To determine the change of bone density, bone density (bone volume/total volume) and bone tissue thickness (trabecular thickness) were measured with the Quantum FX microCT Imaging System. Femurs were separated from mice after the last administration of NPY D^25(21-28), NPY D^26(21-28), and NPY D^25,26(21-28) at 4 weeks. To determine the change of bone density, bone density (bone volume/total volume) and bone tissue thickness (trabecular thickness) were measured with the Quantum FX microCT Imaging System.

[2] = system: adhesion factors of hematopoietic stem cell in bone marrow (Sdf-1a, KitI, Angpt1); test: expression of adhesion factors in bone marrow of osteoporosis animal models, real-time quantitative PCR; settings: OVX mice, 50 μg/kg i.p. twice a day for 4 weeks; bone marrow 1 hour after last administration
Experimental: (§1) To make an osteoporosis model, 10-18 12 weeks old female mice per group underwent ovarian ablation. A week later, 50 μg/kg of NPY(21-28), NPY D^25(21-28), NPY D^26(21-28), NPY D^25,26(21-28), Osteopep2, NPY and 100 μl of PBS(Gibco) were intraperitoneally administered twice a day for 4 weeks at 12 hour intervals. Alendronate (Sigma), used as a competitive drug, was intraperitoneally administered once a week for 4 weeks at a dose of 50 μg/kg. As a control group, only Sham model of osteoporosis was performed by subcutaneous dissection of female mouse. Mice were placed in experimental groups using the Block randomization method, and all mouse experiments were approved through the Kyungpook National University Institutional Animal Care and Use Committee.
Real-time quantitative PCR was used to measure expression levels of hematopoietic stem cell adhesion factors (Sdf-1a, KitI, Angpt1) present in osteoblasts. Total RNA was extracted from cell eluate and bone marrow cells using the RNeasy Plus mini kit (Qiagen, Korea, Ltd), and cDNAs were synthesized from 5 μg total RNA using a kit in Clontech (Mountain View, Calif.). In addition, using a Corbett research RG-6000 real-time PCR instrument, Real-time quantitative PCR was performed at 95° C. for 10 minutes; at 95° C., for 10 seconds; at 58° C., for 15 seconds; at 72° C. for 20 seconds as one cycle, and 40 cycles were repeated.
In order to investigate whether the NPY (21-28) of the present invention affects the blood release of myelopoiesis stem cells in the animal models of osteoporosis, the following experiments were carried out according to the methods of Examples 1-1, 1-3, 1-4, and 1-5. In order to make animal models of osteoporosis, 12 weeks old C57BL/6 female mice were subjected to ovarian ablation for 10 to 18 animals in each group. […] Weight change was measured weekly, and bone marrow and blood were collected one hour after the last dose at 4 weeks, and the release of myelopoiesis progenitor and stem cells into blood was analyzed. […]

[3] = system: osteoblasts in bone marrow; test: H & E staining of osteoblasts in bone marrow of osteoporosis animal models; settings: OVX mice, 50 μg/kg i.p. twice a day for 4 weeks; compared to PBS
Experimental: as §1
The femurs were separated from the mice and fixed in 4% paraformaldehyde for 24 hours, and tissue was decalcified in 10% EDTA for 5 weeks. It was then dehydrated with a series of diluted alcohols, paraffinized, and prepared into […] paraffin sections.
For H & E staining, the deparaffinized sections were stained with Harris hematoxyline for 8 minutes, washed with distilled water, and stained with Eosin for 1 minute.
Histomorphometric analysis was performed using the OsteoMeasure program (Extensive interactive Bone Histomorphometry Analysis System).
After the last administration of 4 weeks of NPY (21-28), the femurs were separated from the mice, and the number of osteoblasts in bone marrow was measured by H & E staining.
After the last administration of 4 weeks of NPY D^25(21-28), NPY D^26(21-28), and NPY D^25,26(21-28), the femurs were separated from the mice and the number of osteoblasts in bone marrow was measured by H & E staining.

| Substance | bone tissue thickness (trabecular thickness) [1] | percentage of bone density (BV/TV) [1] | expression levels of major adhesion factors Sdf-1a, KitI, and Angpt1 in bone marrow [2] | number of osteoblast (Number of osteoblast/Bone surface) [3] | osteoblast surface (Osteoblast surface/Bone surface) [3] |
| --- | --- | --- | --- | --- | --- |
| NPY D^25,26(21-28): peptide in which both the fifth and sixth amino acids of NPY (21-28) are modified to D-form (YSAL[dR][dH]YI) | increased; also recorded: equal to or higher than that of NPY (21-28); also recorded: best effect | increased; also recorded: equal to or higher than that of NPY (21-28); also recorded: best effect | decreased; also recorded: generally superior to those of NPY | increased | increased |
| YSALRHYI [NPY (21-28)] | better than that of the Osteopep2 and NPY | better than that of the Osteopep2 and NPY | decreased | increased; also recorded: better than that of Osteopep2 | increased; also recorded: better than that of Osteopep2 |
| NPY D^25(21-28): peptide in which arginine, the fifth amino acid of the amino acid sequence of NPY (21-28), is modified to D-type (YSAL[dR]HYI) | increased; also recorded: equal to or higher than that of NPY (21-28) | increased; also recorded: equal to or higher than that of NPY (21-28) | decreased; also recorded: generally superior to those of NPY | increased | increased |
